Drawing on ChEMBL document CHEMBL4483862, “Open-source discovery of chemical leads for next-generation chemoprotective antimalarials” (2018), this text covers IC50 and IC90 for 39 compounds.

This assay relates to Plasmodium berghei. The assay can be described thus: Luciferase/luciferin-expressing antifolate-resistant parasites were used to infect a culture of HepG2 cells that were pre-incubated with compounds. Infected hepatocytes emit light due to the luciferase reaction. Assay results are presented as the percent inhibition of light emission compared to control. […]. In kind it is functional. Conditions: sporozoite; for IC90: read-out: LUCIFERASE INFECTION ASSAY - IC90.

[1] abbreviates: read-out: LUCIFERASE INFECTION ASSAY - IC50.

Some results are limits rather than exact numbers.

What is called IC50 is the concentration that gives 50% inhibition. The IC90 is the point of the concentration-response curve where the effect stands at 90%.

As to `Cc1cc(NC(=O)c2ccc(CN3CCN(C/C=C/c4ccccc4)CC3)cc2)ccc1Cl`, the IC90 was > 10 µM. The IC50 (HEPG2TOX_HILL_SLOPE 1.44, HEPG2TOX_R_SQUARED 0.929, PBLUC_HILL_SLOPE 2.64, PBLUC_R_SQUARED 0.29, read-out: LUCIFERASE INFECTION ASSAY - IC50) stood at 4.99 µM.
On to `CN(CCOC(=O)Nc1cc(Cl)cc(Cl)c1)c1ncc(C(F)(F)F)cc1Cl`, for which the 90% effect concentration (IC90) is > 7.46 µM. In addition, under setting [1], the half-inhibitory concentration (IC50) is > 7.46 µM.
On to `COc1ccc(C2CC(c3ccccc3)=NN2C(=O)COc2c(Cl)cc(Cl)c3ccc(C)nc23)cc1` (stereo not drawn), for which the concentration for an effect of 90% (IC90) is > 10 µM. The IC50 under setting [1] is > 10 µM.
Consider `CC(C)c1ccc(NC(=O)CSc2ncc3c(n2)CC(C)(C)CC3=O)cc1`, for which the 90% effect concentration (IC90) is > 8.6 µM. The IC50 under setting [1] was > 8.6 µM.
For the compound `Clc1ccc2nc(CSc3nnc4c(n3)[nH]c3ccccc34)cn2c1`, the IC90 is 9.67 µM. Also, where the note is “FFLUC_HILL_SLOPE 14.4, FFLUC_R_SQUARED 0.465, PBLUC_HILL_SLOPE 2.72, PBLUC_R_SQUARED 0.431, read-out: LUCIFERASE INFECTION ASSAY - IC50”, the concentration for half-maximal inhibition (IC50) was found to be 4.31 µM.
For `Cc1cc(NC(=O)C(Nc2ccc(N3CCCC3)c(C)c2)c2ccccc2)no1` (stereo not drawn), the IC90 is > 10 µM. Also, the half-inhibitory concentration (IC50) (FFLUC_HILL_SLOPE 3.98, FFLUC_R_SQUARED 0.653, PBLUC_HILL_SLOPE 2, PBLUC_R_SQUARED 0.333, read-out: LUCIFERASE INFECTION ASSAY - IC50) is > 10 µM.
Take `Cc1nc(-c2ccsc2)sc1C(=O)Nc1nc(-c2ccc(NS(C)(=O)=O)cc2)cs1`: the IC90 worked out at 8.82 µM. Besides, under setting [1], the concentration for half-maximal inhibition (IC50) turned out to be 5.84 µM.
Take `COc1ccc(NC(=O)c2ccn[nH]2)cc1NC(=O)c1ccc(Cl)cc1F`: the IC90 worked out at 4.87 µM. Further, the IC50 (HEPG2TOX_HILL_SLOPE 3.17, HEPG2TOX_R_SQUARED 0.943, PBLUC_HILL_SLOPE 8.03, PBLUC_R_SQUARED 0.294, read-out: LUCIFERASE INFECTION ASSAY - IC50) came to 3.7 µM.
In the case of `O=C(c1ccco1)N1CCC(Nc2nc(-c3cccs3)nc3sc4c(c23)CCCC4)CC1`, the 90% effect concentration (IC90) is > 10 µM. Also, the IC50 under setting [1] was > 10 µM.
`S=C(Nc1ccccc1)N1CCCN(c2nc3ccc(Cl)cc3s2)CC1`: the IC90 is 3.16 µM. The IC50 (HEPG2TOX_HILL_SLOPE 1.54, HEPG2TOX_R_SQUARED 0.918, PBLUC_HILL_SLOPE 12.4, PBLUC_R_SQUARED 0.732, read-out: LUCIFERASE INFECTION ASSAY - IC50) is 2.65 µM.
As to `CCOC(=O)CSCc1noc(COc2ccc(Cl)cc2Cl)n1`, the 90% effect concentration (IC90) worked out at 0.26 µM. In addition, the IC50 (PBLUC_HILL_SLOPE 0.923, PBLUC_R_SQUARED 0.877, read-out: LUCIFERASE INFECTION ASSAY - IC50) came to 0.0241 µM.
In the case of `CC(=O)c1c(C)[nH]c(C(=O)OC(c2ccccc2)c2ccc(Cl)cc2)c1C` (stereo not drawn), the IC90 is > 10 µM. The IC50 under setting [1] was > 10 µM.
In the case of `CC(C)CCOc1ccc(C(C2C(=O)CC(C)(C)CC2=O)C2C(=O)CC(C)(C)CC2=O)cc1`, the concentration for an effect of 90% (IC90) was > 10 µM. The IC50 (FFLUC_HILL_SLOPE 1.63, FFLUC_R_SQUARED 0.537, read-out: LUCIFERASE INFECTION ASSAY - IC50) is > 10 µM.
Consider `Cn1c(C=C2NC(c3cnccn3)=NO2)n[nH]c1=S`, for which the IC90 was > 12 µM. In addition, under “PBLUC_HILL_SLOPE 0.666, PBLUC_R_SQUARED 0.147, read-out: LUCIFERASE INFECTION ASSAY - IC50”, the concentration for half-maximal inhibition (IC50) was > 12 µM.
Regarding `CCC(=O)/C(=N/Nc1ccccc1)C(=O)OC`, the IC90 was > 14.1 µM. In addition, the IC50 under setting [1] was > 14.1 µM.
For `O=C(NNC(=S)Nc1cccc(C(F)(F)F)c1)c1[nH]c2ccccc2c1-c1ccccc1`, the concentration for an effect of 90% (IC90) turned out to be 2.73 µM. Also, the IC50 (HEPG2TOX_HILL_SLOPE 2.69, HEPG2TOX_R_SQUARED 0.963, PBLUC_HILL_SLOPE 11.7, PBLUC_R_SQUARED 0.673, read-out: LUCIFERASE INFECTION ASSAY - IC50) was found to be 2.27 µM.
Regarding `Cc1ccc(NC(=O)c2cccn(Cc3ccc(C(F)(F)F)cc3)c2=O)cc1C`, the IC90 is > 8.24 µM. Also, the half-maximal inhibitory concentration (IC50) under setting [1] is > 8.24 µM.
`CC(=O)c1ccc(-c2ccc(C(=O)Nc3nc(-c4ccccn4)cs3)o2)cc1`: the IC90 turned out to be 7.29 µM. In addition, the 50% inhibitory concentration (IC50) (HEPG2TOX_HILL_SLOPE 2.67, HEPG2TOX_R_SQUARED 0.908, PBLUC_HILL_SLOPE 30.3, PBLUC_R_SQUARED 0.327, read-out: LUCIFERASE INFECTION ASSAY - IC50) was 6.78 µM.
As for `CC(C)c1cccc(-c2ccc3nnc(-c4ccc(OCCCN(C)C)cc4)n3c2)c1`, the 90% effect concentration (IC90) was > 10 µM. Moreover, under setting [1], the IC50 is > 10 µM.
As to `CC(C)(C)c1ccc(C(=O)Nc2cccc(F)c2C#N)cc1`, the IC90 is > 11.1 µM. Where the note is “PBLUC_HILL_SLOPE 11.7, PBLUC_R_SQUARED 0.257, read-out: LUCIFERASE INFECTION ASSAY - IC50”, the half-maximal inhibitory concentration (IC50) was 9.4 µM.
For the compound `COc1ccc(NC(=O)c2ccc3c(c2)C(=O)N(c2ccccc2Cl)C3=O)cn1`, the IC90 was > 10 µM. Also, under setting [1], the concentration for half-maximal inhibition (IC50) is > 10 µM.
`CCOc1nc(N)c(C#N)c(-c2ccc(C(F)(F)F)cc2)c1C#N`: the IC90 is 8.21 µM. Under setting [1], the 50% inhibitory concentration (IC50) turned out to be 4.53 µM.
For the compound `N#CC(C#N)=NNc1ccc(-c2ccccc2)cc1`, the IC90 was > 10 µM. Where the note is “HEPG2TOX_HILL_SLOPE 3.84, HEPG2TOX_R_SQUARED 0.689, PBLUC_HILL_SLOPE 2.62, PBLUC_R_SQUARED 0.817, read-out: LUCIFERASE INFECTION ASSAY - IC50”, the IC50 came to 4.72 µM.
As for `COC(=O)c1c(NC(=O)C(=O)NCCN(C)C)sc2c1CCCC2`, the 90% effect concentration (IC90) is > 9.34 µM. Under setting [1], the IC50 was > 9.34 µM.
Turning to `Oc1c(Cl)cc(Cl)cc1/C=C/c1ccc2cccc(O)c2n1`, the 90% effect concentration (IC90) stood at 7.78 µM. In addition, where the note is “HEPG2TOX_HILL_SLOPE 10.3, HEPG2TOX_R_SQUARED 0.191, PBLUC_HILL_SLOPE 3.13, PBLUC_R_SQUARED 0.48, read-out: LUCIFERASE INFECTION ASSAY - IC50”, the concentration for half-maximal inhibition (IC50) was found to be 3.86 µM.
`CCCc1c(Cc2c(F)cccc2Cl)c(=O)oc2cc(OC(=O)COC)ccc12`: the IC90 turned out to be 3.31 µM. Besides, the IC50 (PBLUC_HILL_SLOPE 13.6, PBLUC_R_SQUARED 0.599, read-out: LUCIFERASE INFECTION ASSAY - IC50) amounted to 2.82 µM.
Turning to `CCCc1cc(NCc2cccnc2)n2nc(C)c(-c3ccccc3)c2n1`, the IC90 was > 9.23 µM. In addition, the 50% inhibitory concentration (IC50) (PBLUC_HILL_SLOPE 1.13, PBLUC_R_SQUARED 0.661, read-out: LUCIFERASE INFECTION ASSAY - IC50) was 3.19 µM.
Consider `CC(C)Oc1ccc(C(=O)NCC(=O)Nc2nc3c(s2)CCCC3)cc1`, for which the IC90 is 4.24 µM. For the same compound, the IC50 (PBLUC_HILL_SLOPE 9.11, PBLUC_R_SQUARED 0.281, read-out: LUCIFERASE INFECTION ASSAY - IC50) came to 3.33 µM.
In the case of `O=C(CSc1ncc(C(F)(F)F)cc1C(F)(F)F)Nc1cc(Cl)cc(Cl)c1`, the concentration for an effect of 90% (IC90) was > 7.35 µM. Also, the IC50 (HEPG2TOX_HILL_SLOPE 12.1, HEPG2TOX_R_SQUARED 0.84, PBLUC_HILL_SLOPE 0.731, PBLUC_R_SQUARED 0.558, read-out: LUCIFERASE INFECTION ASSAY - IC50) worked out at 1.53 µM.
Turning to `CCOc1ccc(-n2c(SCC(=O)Nc3cc(C(C)(C)C)nn3-c3ccccc3)nc3ccccc32)cc1`, the concentration for an effect of 90% (IC90) is > 10 µM. The half-maximal inhibitory concentration (IC50) (FFLUC_HILL_SLOPE 35.3, FFLUC_R_SQUARED 0.234, PBLUC_HILL_SLOPE 11.6, PBLUC_R_SQUARED 0.616, read-out: LUCIFERASE INFECTION ASSAY - IC50) came to 8.73 µM.
Take `COc1cccc2sc(NC(=O)C3CCN(C(C)=O)CC3)nc12`: the 90% effect concentration (IC90) was > 10 µM. The half-inhibitory concentration (IC50) under setting [1] was > 10 µM.
On to `CCOC(=O)N1CCN(CC(O)COc2ccc3oc4ccccc4c3c2)CC1` (stereo not drawn), for which the 90% effect concentration (IC90) is > 10 µM. Moreover, under setting [1], the IC50 is > 10 µM.
In the case of `CC(C)(C)c1ccc(OCC(=O)NNC(=O)Cc2csc(-c3ccccc3)n2)cc1`, the concentration for an effect of 90% (IC90) was > 10 µM. For the same compound, under setting [1], the half-inhibitory concentration (IC50) is > 10 µM.
Turning to `COc1ccc(-c2cc3ncc(-c4ccccc4)c(N)n3n2)cc1`, the concentration for an effect of 90% (IC90) worked out at 4.1 µM. Besides, the IC50 (PBLUC_HILL_SLOPE 17.3, PBLUC_R_SQUARED 0.589, read-out: LUCIFERASE INFECTION ASSAY - IC50) worked out at 3.61 µM.
On to `CCCCCC(=O)Nc1ccc(C2=Nn3c(Cc4cccc5ccccc45)nnc3SC2)cc1`, for which the IC90 is > 10 µM. Further, the IC50 (HEPG2TOX_HILL_SLOPE 0.272, HEPG2TOX_R_SQUARED 0.219, PBLUC_HILL_SLOPE 1.92, PBLUC_R_SQUARED 0.644, read-out: LUCIFERASE INFECTION ASSAY - IC50) was 7.04 µM.
As for `Cc1ccc(-n2c(SC(C)C(=O)NCCc3cccs3)nnc2-c2ccccc2F)cc1` (stereo not drawn), the IC90 is > 10 µM. Moreover, the IC50 (FFLUC_HILL_SLOPE 1.87, FFLUC_R_SQUARED 0.282, HEPG2TOX_HILL_SLOPE 0.0378, HEPG2TOX_R_SQUARED 0.0131, PBLUC_HILL_SLOPE 12.6, PBLUC_R_SQUARED 0.129, read-out: LUCIFERASE INFECTION ASSAY - IC50) is > 10 µM.
For the compound `Cc1oc2[nH]cnc(=O)c2c1C(=O)Nc1ccccc1Cc1ccccc1`, the IC90 is > 10 µM. For the same compound, where the note is “FFLUC_HILL_SLOPE 0.892, FFLUC_R_SQUARED 0.572, PBLUC_HILL_SLOPE 0.52, PBLUC_R_SQUARED 0.732, read-out: LUCIFERASE INFECTION ASSAY - IC50”, the IC50 was determined as 2.73 µM.
Consider `COc1cccc(-c2cc3c(cn2)nc(NCCc2cc(OC)ccc2OC)n3C)c1`, for which the IC90 was 0.667 µM. The half-maximal inhibitory concentration (IC50) (HEPG2TOX_HILL_SLOPE 2.25, HEPG2TOX_R_SQUARED 0.767, PBLUC_HILL_SLOPE 1.04, PBLUC_R_SQUARED 0.785, read-out: LUCIFERASE INFECTION ASSAY - IC50) is 0.0813 µM.
With `O=C(Nc1ccc[n+](Cc2ccccc2)c1)c1ccccc1-c1ccc(C(F)(F)F)cc1`, the concentration for an effect of 90% (IC90) is > 10 µM. For the same compound, where the note is “PBLUC_HILL_SLOPE 3.37, PBLUC_R_SQUARED 0.68, read-out: LUCIFERASE INFECTION ASSAY - IC50”, the IC50 worked out at 5.76 µM.
